Source: paper PMC4628094, “In Vitro Assessment of Uptake and Lysosomal Sequestration of Respiratory Drugs in Alveolar Macrophage Cell Line NR8383” (Pharmaceutical Research, 2015)

Experiments:
[1] = tested on: Mouse peritoneal macrophages; set-up: method as in ref (1) (a number printed in a supplementary file, which may have a reference list of its own: not looked up in the article's list); conditions: drug 50 µM, 120 min, ref (1), cited from earlier work
[2] = tested on: Liver tissue slices from male Wistar rats; set-up: method as in ref (7) (a number printed in a supplementary file, which may have a reference list of its own: not looked up in the article's list); conditions: NH4Cl 3 mg/min/kg (i.v. infusion), drug 3.2 mg/kg (i.v. injection), 360 min, ref (7); cited from earlier work
[3] = tested on: Lung tissue slices from male Wistar rats; set-up: method as in ref (7) (a number printed in a supplementary file, which may have a reference list of its own: not looked up in the article's list); conditions: NH4Cl 3 mg/min/kg (i.v. infusion), drug 3.2 mg/kg (i.v. injection), 360 min, ref (7); cited from earlier work
[4] = tested on: Lung granule fraction containing lysosomes from male Wistar rats; set-up: method as in ref (6) (a number printed in a supplementary file, which may have a reference list of its own: not looked up in the article's list); conditions: NH4Cl 10 mM, drug 1 µM, 10 min; ref (6); cited from earlier work
[5] = tested on: Liver tissue slices from male Sprague-Dawley rats; set-up: method as in ref (3) (a number printed in a supplementary file, which may have a reference list of its own: not looked up in the article's list); conditions: NH4Cl 20 mM, desipramine 5 µM, chloroquine 10 µM, 60 min, ref (3); cited from earlier work
[6] = tested on: Lung tissue slices from male Sprague-Dawley rats; conditions: desipramine, diazepam 5 µM, chloroquine, thiopental 10 µM, 60 min, ref (3), cited from earlier work
[7] = Drug uptake in NR8383 at 37 and 4°C (CLuptake, CLdiff, Kp); conditions: rat
NR8383 cells [8] = experiment: as above; conditions: NR8383, 5 μM; CLdiff relative to CLuptake
NR8383 cells [9] = conditions: high drug concentrations (50 and 100 μM per method), not stated at the place
[10] = Physicochemical properties, experimental literature values (Table I); conditions: classification in Table I
[11] = experimental value; ref ([21])-([30]) per drug, Table I; cited from earlier work
[12] = Accumulation (Kp) in NR8383 over a concentration range, two-site binding model; conditions: rat, control
NR8383 cells [13] = experiment: as above; conditions: apparent saturable uptake equilibrium constant, two-site binding model, control
[14] = Lysosomal sequestration studies in NR8383 with NH4Cl, monensin and nigericin; conditions: rat; for Kp at 10 min, 5 μM: NR8383, 5 μM drug; for Kp at 10 min, 20 µM: NR8383, 20 µM drug
NR8383 cells [15] = experiment: as above; conditions: for % Reduction in Kp by NH4Cl: NH4Cl 20 mM

CN [Methylamine]
Reduction in total uptake (%) ([1]; NH4Cl 10 mM): 54% | Reduction of total uptake (%) ([1]; nigericin 5 µg/ml (~7 µM)): 49%

OC(CCN1CCCCC1)(c1ccccc1)C1CC2C=CC1C2 (centres unmarked) [Biperiden]
Reduction in total uptake (%) [2]: 2.5% | Reduction in total uptake (%) [3]: 77% | Reduction in total uptake (%) [4]: 56%

CNCCCN1c2ccccc2CCc2ccccc21 [Desipramine]
Reduction in total uptake (%) [5]: 15% | Reduction in total uptake (%) ([6]; NH4Cl 20 mM): 23% | Reduction of total uptake (%) ([6]; monensin 10 µM): 12%

COc1ccc(CC(C)NCC(O)c2ccc(O)c(NC=O)c2)cc1 (centres unmarked) [Formoterol]
Kp at 10 min, 5 μM [7]: 24.5 ± 8.71 | Contribution of passive (%) (NR8383 cells [8]): 3.71% | cytotoxicity (LDH) compared to positive control (NR8383 cells [9]): less than 5% | Acid–base Property [10]: Base | LogD7.4 [11]: 2.60 | Kp at 10 min ([12]; Kp,max, sum of Kp,U1,max and Kp,min): 69 | Kp at 10 min ([12]; Kp,min, NR8383, 37°C, concentration range, two-site binding model): 10 ± 0.92 | KU1 (NR8383 cells [13]): 1.54 ± 0.49 µM | Kp at 10 min, 5 μM ([14]; Kp + NH4Cl, 20 mM NH4Cl co-incubated, 10 min): 15.5 ± 1.16 | Kp at 10 min, 20 µM ([14]; Kp + NH4Cl, 20 mM NH4Cl): 19.2 ± 4.13 | Kp at 10 min, 5 μM ([14]; Kp Control, control): 20.8 ± 3.6 | Kp at 10 min, 20 µM ([14]; Kp Control, control): 26.5 ± 6.54 | % Reduction in Kp by NH4Cl (NR8383 cells [15]; NR8383, 5 μM drug): 24 ± 9.0% | % Reduction in Kp by Monensin (NR8383 cells [15]; NR8383, 5 μM drug, monensin 5 μM, 5 min): 40 ± 7.5% | % Reduction in Kp by Nigericin (NR8383 cells [15]; NR8383, 5 μM drug, nigericin 10 μM, 5 min): 27 ± 5.1 % | % Reduction in Kp by NH4Cl (NR8383 cells [15]; NR8383, 20 µM drug): 27 ± 8.1 % | % Reduction in CLuptake by Monensin (5 µM) (NR8383 cells [15]; NR8383, at 5 µM drug): 41 ± 5.6% | % Reduction in CLuptake by NH4Cl (20 mM) (NR8383 cells [15]; NR8383, at 5 µM drug): 25 ± 14% | % Reduction in CLuptake by Nigericin (10 µM) (NR8383 cells [15]; NR8383, at 5 µM drug): 19 ± 12% | % Reduction in CLuptake by NH4Cl (20 mM) (NR8383 cells [15]; NR8383, at 20 µM drug): 27 ± 13% | reduction in Kp in the presence of chemical agents (summary in Discussion) (NR8383 cells [15]; NR8383, NH4Cl, monensin, nigericin): 20–40%
